Results reported in ChEMBL document CHEMBL4813981, “Synthesis and in vitro antibacterial activity of new aminothiazole-oximepiperidone cephalosporins” (2021).

Legend:
Klebsiella pneumoniae [1] = assay: Antibacterial activity against Carbapenem- resistant Klebsiella pneumoniae KR 15-4 assessed as reduction in bacterial growth in the presence of Avibactam; type: functional
Klebsiella pneumoniae [2] = assay: Antibacterial activity against Multidrug resistant Klebsiella pneumoniae KR 15-3 assessed as reduction in bacterial growth in the presence of Avibactam; type: functional
Acinetobacter baumannii [3] = assay: Antibacterial activity against Acinetobacter baumannii NCTC 13304 assessed as reduction in bacterial growth in the presence of Avibactam; type: functional
Pseudomonas aeruginosa [4] = assay: Antibacterial activity against Carbapenem- sensitive Pseudomonas aeruginosa 17-21 assessed as reduction in bacterial growth in the presence of Avibactam; type: functional
Escherichia coli [5] = assay: Bactericidal activity against ESBLs negative Carbapenem--sensitive Escherichia coli 17-9 assessed as reduction in bacterial growth; type: functional
Enterobacter cloacae [6] = assay: Bactericidal activity against Enterobacter cloacae 17-8 assessed as reduction in bacterial growth in the presence of avibactam; type: functional
Escherichia coli [7] = assay: Bactericidal activity against ESBLs negative carbapenem-sensitive Escherichia coli 17-7 assessed as reduction in bacterial growth in the presence of avibactam; type: functional
Escherichia coli [8] = assay: Antibacterial activity against ESBLs positive Carbapenem-sensitive Escherichia coli 17-10 assessed as reduction in bacterial growth in the presence of Avibactam; type: functional
Escherichia coli [9] = assay: Antibacterial activity against ESBLs negative Carbapenem-sensitive Escherichia coli 17-7 assessed as reduction in bacterial growth in the presence of Avibactam; type: functional
Pseudomonas aeruginosa [10] = assay: Bactericidal activity against Pseudomonas aeruginosa ATCC 27853 assessed as reduction in bacterial growth in the presence of avibactam; type: functional
Klebsiella pneumoniae [11] = assay: Antibacterial activity against ESBLs positive Carbapenem-sensitive Klebsiella pneumoniae 17-7 assessed as reduction in bacterial growth in the presence of Avibactam; type: functional
Escherichia coli [12] = assay: Antibacterial activity against ESBLs negative Carbapenem--sensitive Escherichia coli 17-20 assessed as reduction in bacterial growth
Enterobacter cloacae [13] = assay: Bactericidal activity against Enterobacter cloacae 17-3 assessed as reduction in bacterial growth in the presence of avibactam; type: functional
Klebsiella aerogenes [14] = assay: Bactericidal activity against Enterobacter aerogenes 15-4 assessed as reduction in bacterial growth in the presence of avibactam; type: functional
Klebsiella aerogenes [15] = assay: Antibacterial activity against Enterobacter aerogenes 15-5 assessed as reduction in bacterial growth in the presence of Avibactam; type: functional
Klebsiella aerogenes [16] = assay: Antibacterial activity against Enterobacter aerogenes 15-3 assessed as reduction in bacterial growth
Pseudomonas aeruginosa [17] = assay: Antibacterial activity against Carbapenem- resistant Pseudomonas aeruginosa 17-5 assessed as reduction in bacterial growth
Escherichia coli [18] = assay: Antibacterial activity against Escherichia coli 15-4 overexpressing extended spectrum beta-lactamases assessed as reduction in bacterial growth in the presence of Avibactam; type: functional
Acinetobacter baumannii [19] = assay: Antibacterial activity against Carbapenem- resistant Acinetobacter baumannii 17-12 assessed as reduction in bacterial growth in the presence of Avibactam; type: functional
Klebsiella pneumoniae [20] = assay: Antibacterial activity against ESBLs negative Carbapenem-sensitive Klebsiella pneumoniae 17-16 assessed as reduction in bacterial growth
Escherichia coli [21] = assay: Bactericidal activity against ESBLs positive carbapenem-sensitive Escherichia coli 17-3 assessed as reduction in bacterial growth in the presence of avibactam; type: functional
Klebsiella pneumoniae [22] = assay: Antibacterial activity against Carbapenem- resistant Klebsiella pneumoniae KR 15-4 assessed as reduction in bacterial growth
Pseudomonas aeruginosa [23] = assay: Bactericidal activity against Carbapenem- resistant Pseudomonas aeruginosa 17-8 assessed as reduction in bacterial growth; type: functional
Klebsiella pneumoniae [24] = assay: Antibacterial activity against ESBLs positive Carbapenem-sensitive Klebsiella pneumoniae 17-9 assessed as reduction in bacterial growth in the presence of Avibactam; type: functional
Klebsiella pneumoniae [25] = assay: Antibacterial activity against ESBLs positive Carbapenem-sensitive Klebsiella pneumoniae 17-15 assessed as reduction in bacterial growth in the presence of Avibactam; type: functional
Klebsiella aerogenes [26] = assay: Bactericidal activity against Enterobacter aerogenes 15-3 assessed as reduction in bacterial growth in the presence of avibactam; type: functional
Escherichia coli [27] = assay: Antibacterial activity against ESBLs positive Carbapenem-sensitive Escherichia coli 17-18 assessed as reduction in bacterial growth in the presence of Avibactam; type: functional
Klebsiella pneumoniae [28] = assay: Antibacterial activity against Multidrug resistant Klebsiella pneumoniae KR 15-1 assessed as reduction in bacterial growth; type: functional
Klebsiella pneumoniae [29] = assay: Antibacterial activity against Multidrug resistant Klebsiella pneumoniae KR 15-3 assessed as reduction in bacterial growth; type: functional
Escherichia coli [30] = assay: Antibacterial activity against ESBLs negative Carbapenem-sensitive Escherichia coli 17-4 assessed as reduction in bacterial growth; type: functional
Pseudomonas aeruginosa [31] = assay: Antibacterial activity against Pseudomonas aeruginosa ATCC 27853 assessed as reduction in bacterial growth in the presence of Avibactam; type: functional
Pseudomonas aeruginosa [32] = assay: Antibacterial activity against Carbapenem- sensitive Pseudomonas aeruginosa 17-26 assessed as reduction in bacterial growth in the presence of Avibactam; type: functional
Klebsiella aerogenes [33] = assay: Antibacterial activity against Enterobacter aerogenes 17-4 assessed as reduction in bacterial growth in the presence of Avibactam; type: functional
Escherichia coli [34] = assay: Antibacterial activity against Escherichia coli NCTC 13353 assessed as reduction in bacterial growth in the presence of Avibactam; type: functional
Pseudomonas aeruginosa [35] = assay: Bactericidal activity against carbapenem-sensitive Pseudomonas aeruginosa 17-26 assessed as reduction in bacterial growth; type: functional
Pseudomonas aeruginosa [36] = assay: Bactericidal activity against Pseudomonas aeruginosa ATCC 27853 assessed as reduction in bacterial growth; type: functional
Enterobacter cloacae [37] = assay: Antibacterial activity against Enterobacter cloacae 17-10 assessed as reduction in bacterial growth in the presence of Avibactam; type: functional
Escherichia coli [38] = assay: Antibacterial activity against ESBLs positive Carbapenem- sensitive Escherichia coli 17-17 assessed as reduction in bacterial growth in the presence of Avibactam; type: functional
Escherichia coli [39] = assay: Bactericidal activity against Escherichia coli NCTC 13353 assessed as reduction in bacterial growth; type: functional
Enterococcus faecalis = assay: Antibacterial activity against Enterococcus faecalis ATCC 51299 assessed as reduction in bacterial growth in the presence of Avibactam; type: functional
Klebsiella pneumoniae [40] = assay: Bactericidal activity against Carbapenem- resistant Klebsiella pneumoniae KR 15-6 assessed as reduction in bacterial growth in the presence of avibactam; type: functional
Enterobacter cloacae [41] = assay: Antibacterial activity against Enterobacter cloacae 17-8 assessed as reduction in bacterial growth in the presence of Avibactam; type: functional
Klebsiella pneumoniae [42] = assay: Antibacterial activity against ESBLs negative Carbapenem-sensitive Klebsiella pneumoniae 17-18 assessed as reduction in bacterial growth in the presence of Avibactam; type: functional
Pseudomonas aeruginosa [43] = assay: Antibacterial activity against Carbapenem- resistant Pseudomonas aeruginosa 17-8 assessed as reduction in bacterial growth in the presence of Avibactam; type: functional
Klebsiella aerogenes [44] = assay: Antibacterial activity against Enterobacter aerogenes 17-1 assessed as reduction in bacterial growth in the presence of Avibactam; type: functional
Pseudomonas aeruginosa [45] = assay: Antibacterial activity against Carbapenem- sensitive Pseudomonas aeruginosa 17-7 assessed as reduction in bacterial growth in the presence of Avibactam; type: functional
Klebsiella aerogenes [46] = assay: Antibacterial activity against Enterobacter aerogenes 15-4 assessed as reduction in bacterial growth; type: functional

Nc1nc(/C(=N/OCc2cc(=O)c(O)cn2O)C(=O)N[C@@H]2C(=O)N3C(C(=O)O)=CCS[C@H]23)cs1
> 64 µg/mL: MIC (Klebsiella aerogenes [16]) | MIC (Klebsiella pneumoniae [22]) | MIC (Klebsiella pneumoniae [28]) | MIC (Klebsiella pneumoniae [29]) | MBC (Escherichia coli [39]) | MIC (Enterococcus faecalis)
0.5 µg/mL: MIC (Escherichia coli [9]) | MIC (Escherichia coli [18]) | MIC (Klebsiella pneumoniae [20]) | MIC (Klebsiella pneumoniae [24]) | MIC (Escherichia coli [27]) | MIC (Escherichia coli [34]) | MIC (Enterobacter cloacae [37]) | MIC (Escherichia coli [38]) | MBC (Klebsiella pneumoniae [40])
> 2 µg/mL: MIC (Escherichia coli [12])
1 µg/mL: MIC (Klebsiella pneumoniae [2]) | MBC (Escherichia coli [7]) | MBC (Klebsiella aerogenes [14]) | MIC (Klebsiella aerogenes [15]) | MIC (Pseudomonas aeruginosa [31]) | MIC (Pseudomonas aeruginosa [32]) | MIC (Klebsiella aerogenes [33])
2 µg/mL: MIC (Pseudomonas aeruginosa [4]) | MBC (Escherichia coli [5]) | MBC (Enterobacter cloacae [6]) | MIC (Klebsiella pneumoniae [11]) | MIC (Enterobacter cloacae [41]) | MIC (Klebsiella aerogenes [44])
0.25 µg/mL: MBC (Escherichia coli [21]) | MIC (Escherichia coli [30]) | MIC (Pseudomonas aeruginosa [45])
16 µg/mL: MIC (Acinetobacter baumannii [3]) | MIC (Acinetobacter baumannii [19]) | MBC (Klebsiella aerogenes [26]) | MBC (Pseudomonas aeruginosa [36]) | MIC (Pseudomonas aeruginosa [43])
64 µg/mL: MIC (Pseudomonas aeruginosa [17]) | MBC (Pseudomonas aeruginosa [23])
0.125 µg/mL: MIC (Klebsiella pneumoniae [25])
0.06 µg/mL: MIC (Escherichia coli [8]) | MIC (Klebsiella pneumoniae [42])
> 16 µg/mL: MBC (Pseudomonas aeruginosa [35])
4 µg/mL: MIC (Klebsiella pneumoniae [1]) | MBC (Pseudomonas aeruginosa [10]) | MIC (Klebsiella aerogenes [46])
8 µg/mL: MBC (Enterobacter cloacae [13])

CC(C)(O/N=C(\C(=O)N[C@@H]1C(=O)N2C(C(=O)[O-])=C(C[n+]3ccccc3)CS[C@H]12)c1csc(N)n1)C(=O)O [CEFTAZIDIME]
1 µg/mL: MIC (Pseudomonas aeruginosa [4]) | MBC (Enterobacter cloacae [6]) | MIC (Klebsiella pneumoniae [25]) | MIC (Pseudomonas aeruginosa [32]) | MBC (Pseudomonas aeruginosa [36]) | MIC (Enterobacter cloacae [37]) | MIC (Klebsiella aerogenes [44])
4 µg/mL: MBC (Escherichia coli [5]) | MBC (Pseudomonas aeruginosa [10]) | MIC (Klebsiella pneumoniae [11]) | MBC (Klebsiella aerogenes [26])
2 µg/mL: MIC (Klebsiella pneumoniae [1]) | MIC (Klebsiella pneumoniae [2]) | MIC (Klebsiella pneumoniae [20]) | MBC (Klebsiella pneumoniae [40])
16 µg/mL: MIC (Pseudomonas aeruginosa [43])
0.125 µg/mL: MBC (Escherichia coli [7]) | MIC (Escherichia coli [9]) | MIC (Enterobacter cloacae [41]) | MIC (Klebsiella pneumoniae [42]) | MIC (Pseudomonas aeruginosa [45])
> 2 µg/mL: MIC (Escherichia coli [12])
0.25 µg/mL: MBC (Enterobacter cloacae [13]) | MBC (Klebsiella aerogenes [14]) | MBC (Escherichia coli [21])
64 µg/mL: MIC (Pseudomonas aeruginosa [17]) | MBC (Pseudomonas aeruginosa [23])
8 µg/mL: MIC (Acinetobacter baumannii [3]) | MIC (Acinetobacter baumannii [19]) | MBC (Pseudomonas aeruginosa [35])
> 64 µg/mL: MIC (Klebsiella aerogenes [16]) | MIC (Klebsiella pneumoniae [22]) | MIC (Klebsiella pneumoniae [28]) | MIC (Klebsiella pneumoniae [29]) | MBC (Escherichia coli [39]) | MIC (Enterococcus faecalis)
0.5 µg/mL: MIC (Escherichia coli [8]) | MIC (Klebsiella aerogenes [15]) | MIC (Escherichia coli [18]) | MIC (Klebsiella pneumoniae [24]) | MIC (Escherichia coli [27]) | MIC (Pseudomonas aeruginosa [31]) | MIC (Klebsiella aerogenes [33]) | MIC (Escherichia coli [34]) | MIC (Escherichia coli [38])

C[C@@H](O)[C@H]1C(=O)N2C(C(=O)O)=C(S[C@@H]3CN[C@H](C(=O)N(C)C)C3)[C@H](C)[C@H]12 [MEROPENEM]
< 0.03 µg/mL: MIC (Escherichia coli [30]) | MIC (Klebsiella aerogenes [46])
